This is an account of results in US20020025307A1, “Bone sialoprotein based toxic gene therapy for the treatment of calcified tumors and tissues” (priority 1998, published 2002).

The nature of data set [1]: Body weight of experimental animals in the PC-3 tumor study. Format: in vivo, athymic nude (nu/nu) mice. Conditions: nude mice bearing PC3 tumors; intratumoral Ad-BSP-TK; GCV 40 mg/kg i.p. An excerpt: FIG. 10 represents an in vivo experiment performed with 16 animals. Briefly, congenitally athymic nude (nu/nu) mice (Harlan Co., Houston, Tex.) 5 to 6 weeks of age, were inoculated s.c. with 2 million PC3 prostate cancer cells. When the tumor became palpable (4-5 mm in diameter), approximately 10 days after cell injection, the animals were randomly assigned to four experimental groups: group: 1, control group with no treatment; 2, intratumoral PBS on days 10, 17, 24 and 30; 3, Ad-BSP-TK only; and 4, Ad-BSP-TK plus GCV given on days 10-40. For Ad-BSP-TK injections, a microliter syringe fitted with a 28 gauge needle was used to deliver 75 μl of Ad-BSP-TK (1×10^9 plaque-forming units). The Ad-BSP-TK was injected intratumorally along both the long and short axes of the tumor; one injection parallel to the long axis, and one perpendicular to the axis. The needle point was then rotated within the tumor to maximize the area of Ad delivery. Tumor volume was calculated by the following formula: volume (a rotational ellipsoid)-M1xM2^2×0.5236 (M1, long axis; M2, short axis; Ko. S-C., Gotoh, A., Thalmann, G. N., Zhou, H. E., Johnston, D. A, Zhang, W. W., Kao, C., and Chung, L. W. K. Molecular therapy with recombinant p53 adenovirus in an androgen independent, metastatic human prostate cancer model. Hum. Gene Ther., 7:1683-1691, 1996). […]

A further data set has as its system BSP promoter. Put plainly: BSP promoter-driven luciferase reporter activity in transfected cells. Particulars: mineralization conditions versus T media, 2186 base pair construct. Format: cell-based, human. Here is the method: Cells ([…]) were exposed to a BSP promoter-luciferase vector (2.5 ug) with liposome mediated transfection for 4-6 hours, then allowed to grow approximately 2 days at which time cell lysates were obtained and assayed for relative luciferase activity (RLU). All values were standardized with cotransfection of CMV-betagalactosidase reporter plasmid (0.5 ug).

Take `Nc1nc(O)c2ncn(COC(CO)CO)c2n1` [GCV, Gancyclovir]: the “effect on body weight” value in data set [1] is “did not adversely affect the body weight”.

Take `O=C1O[C@H]([C@@H](O)CO)C(O)=C1O` [L-ascorbic acid]: the “BSP promoter expression as RLU” value in the data set on BSP promoter (C4-2B4), in the data set on BSP promoter (Du-145) and with BSP promoter (PC-3) was “hightened response” each time.
